Molecules are shown by their SMILES.

Test [1] has as its system HFL-1 cells. As to the kind of experiment: IL-8 production assay (S1P induced IL-8). The class given is cell-based. To be noted: Homo sapiens, HFL1; S1P (1 μM) induced IL-8 in HFL-1 cells, starvation medium without HSA; read-out: IL8 EC50. On the procedure:
This assay is designed to test inhibitory activity of compounds on S1P induced IL-8 on HFL-1 cells, ahuman fetal lung fibroblast cell line.
Human Fetal Lung cells (HFL-1) are seeded in 96 well plates in growth medium (F12K+10% heat inactivated FBS+l1% Pen/strep). After overnight incubation at 37° C., […] cells are refreshed with starvation medium without HSA (F12K+1% FBS+1% Pen/strep). On day three, compounds are added (10 point serial dilution, 30 μM highest concentration, 1/3 dilution, 0.3% DMSO final) and plates are incubated for one h at 37° C., 5% CO2. Subsequently S1P at 1 μM final concentration is added and plates are incubated for 16 to24 h at 37° C., […] after which the supermatant was collected. IL-8 levels in the supernatant are determined with the IL-8 ELISA of R&D systems.

The target in another test is T1, S1PR2 (Homo sapiens, UniProt O95136).
T1 construct: expressed in transfected cells
Briefly: S1PR2 binding assay (competition with radioactively labeled S1P, SpA). To be noted: membranes from stable cell line over expressing S1PR2, SpA beads; read-out: S1P2 EC50 (nM), S1PR2 binding EC50. In outline:
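Competition with [3H]S1P for membranes from a stable S1PR2-overexpressing cell line, 20 μg/well, captured on PVT-WGA SPA beads, in 20 mM Tris pH 7.5, 10 mM MgCl2, 100 mM NaCl, 0.4% fatty-acid-free BSA, 1 mM Na3VO4. 2 h at room temperature, then centrifugation and scintillation counting.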

Test [2] concerns HFL-1 cells. Briefly: IL8 assay in the presence of Human Serum Albumin. The conditions noted are these: HFL1, read-out: HSA IL8 EC50.
The target of test [3] is T2, human GPCR sphingosine 1-phosphate receptor 2 (Homo sapiens, UniProt O95136).
T2 construct: host or cells: CHO
As to the kind of experiment: S1PR2 antagonist Ca2+ flux assay. The test is classed as cell-based. The conditions noted are these: antagonist mode, CHO-S1PR2 cells, S1P at EC80, Ca2+ fluorescence; read-out: S1P2 EC50 (nM), S1P2 antagonist EC50. In outline:
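CHO cells stably expressing human S1PR2, serum-starved 1 h, Fluo8-loaded; compound-evoked Ca2+ fluorescence read 3 min (agonist mode), then after 15 min S1P at EC80 added and read 3 min (antagonist mode). Max/baseline fluorescence ratios normalised to vehicle and S1P EC100 or EC50 controls; EC50 derived.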
(Calcium flux is commonly read through the fluorescence of an indicator in the cells.)

T1 sequence (O95136 whole entry): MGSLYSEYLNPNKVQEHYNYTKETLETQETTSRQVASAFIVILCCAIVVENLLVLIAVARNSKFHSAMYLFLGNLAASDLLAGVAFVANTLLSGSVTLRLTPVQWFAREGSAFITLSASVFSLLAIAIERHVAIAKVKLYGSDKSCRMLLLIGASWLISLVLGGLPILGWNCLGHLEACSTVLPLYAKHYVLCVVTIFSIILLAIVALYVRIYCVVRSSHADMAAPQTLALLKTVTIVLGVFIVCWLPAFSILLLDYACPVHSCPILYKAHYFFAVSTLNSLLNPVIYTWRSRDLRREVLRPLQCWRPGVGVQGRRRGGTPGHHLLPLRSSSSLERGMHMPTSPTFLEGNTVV
T2 sequence (O95136 whole entry): as above

For orientation: EC50 means the midpoint of the concentration-response curve. Turning to `N#Cc1cc2[nH]c(Cc3nn(CC(=O)N4CCC5(C4)CC5(F)F)c(=O)c4ccccc34)nc2cc1OCC(F)F` (stereo not shown) [Compound 235, 2-[[3-[2-(2,2-difluoro-5-azaspiro[2.4]heptan-5-yl)-2-oxo-ethyl]-4-oxo-phthalazin-1-yl]methyl]-6-(2,2-difluoroethoxy)-3H-benzimidazole-5-carbonitrile], the concentration giving a half-maximal response (EC50) was determined as 49.2 nM with HFL-1 cells [1], 117 nM on S1PR2, 159 nM in the test with HFL-1 cells [2] and 18.2 nM in test [3].

Regarding `O=C(O)Cc1nn(Cc2nc3cc(OCC(F)F)c(Cl)cc3[nH]2)c2ccccc2c1=O` [Compound 78, {1-[6-Chloro-5-(2,2-difluoro-ethoxy)-1H-benzoimidazol-2-ylmethyl]-4-oxo-1,4-dihydro-cinnolin-3-yl}-acetic acid], the EC50 in the test on HFL-1 cells [1] was 4.65 nM; on S1PR2, 55.9 nM; with HFL-1 cells [2] it was 41.5 nM; in test [3] it was 6.16 nM.

Take `N#Cc1cc2nc(Cc3nn(CC(=O)O)c(=O)c4ccccc34)[nH]c2cc1OCC(F)F` [Compound 139]: the EC50 in the test on HFL-1 cells [1] amounted to 5.39 nM; on S1PR2 it was 159 nM; in the test on HFL-1 cells [2] it was 28 nM; in test [3], 119 nM.

Consider `O=C(O)Cc1nn(Cc2cn3cc(OCC4CC4)c(Cl)cc3n2)c2c(c1=O)CCCC2` [Compound 105, 2-[1-[[7-chloro-6-(cyclopropylmethoxy)imidazo[1,2-a]pyridin-2-yl]methyl]-4-oxo-5,6,7,8-tetrahydrocinnolin-3-yl]acetic acid], for which the concentration giving a half-maximal response (EC50) is 10.6 nM with HFL-1 cells [1], 35.3 nM at S1PR2, 110 nM in the test on HFL-1 cells [2] and 3.02 nM in test [3].

Consider `CC(=O)N1CCCC1Cn1nc(Cc2nc3cc(Cl)c(OC(F)(F)F)cc3[nH]2)c2ccccc2c1=O` (stereo not shown) [compound 14, 2-[(1-acetylpyrrolidin-2-yl)-methyl]-4-[[5-chloro-6-(tri-fluoromethoxy)-1H-benzimidazol-2-yl]methyl]-phthalazin-1-one], for which the EC50 was 1450 nM with HFL-1 cells [1], 4950 nM on S1PR2, 10000 nM in the test on HFL-1 cells [2] and 615 nM in test [3].

Turning to `O=c1c2ccccc2c(Cn2cc3cc(OCC4CC4)c(Cl)cc3n2)nn1C1CNC1` [compound 2, 2-(azetidin-3-yl)-4-[[6-chloro-5-(cyclopropyl-methoxy)indazol-2-yl]methyl]-phthalazin-1-one], the EC50 in the test on HFL-1 cells [1] came out at 38.8 nM; at S1PR2 it was 75.7 nM; in the test on HFL-1 cells [2], 166 nM; in test [3], 81.6 nM.

Consider `O=C(O)c1nn(Cc2nc3cc(OCC4CC4)c(C(F)(F)F)cc3[nH]2)c2ccccc2c1=O` [Compound 104, (1-[[5-(cyclopropylmethoxy)-6-(trifluoromethyl)-1H-benzimidazol-2-yl]methyl]-4-oxocinnoline-3-carboxylic acid)], for which the EC50 is 4.55 nM in the test with HFL-1 cells [1], 22.4 nM at S1PR2, 27 nM with HFL-1 cells [2] and 3.02 nM in test [3].

With `CC(C)(C)COc1cc2nc(Cc3nn(CC(=O)O)c(=O)c4ccccc34)[nH]c2cc1Cl` [Compound 132], the concentration for a half-maximal effect (EC50) in the test on HFL-1 cells [1] is 97.3 nM; at S1PR2, 649 nM; with HFL-1 cells [2] it was 800 nM; in test [3], 26.4 nM.

Take `CC1(C)CCN(C(=O)Cn2nc(Cc3nc4cc(OCC(F)F)c(C#N)cc4[nH]3)c3ccccc3c2=O)C1` [Compound 233, 6-(2,2-difluoroethoxy)-2-[[3-[2-(3,3-dimethylpyrrolidin-1-yl)-2-oxo-ethyl]-4-oxo-phthalazin-1-yl]methyl]-3H-benzimidazole-5-carbonitrile]: the EC50 with HFL-1 cells [1] came to 28.8 nM; on S1PR2 it was 210 nM; in the test on HFL-1 cells [2] it was 562 nM; in test [3], 16.8 nM.

As for `O=C(O)Cc1nn(Cc2nc3cc(OCC4CC4)c(Br)cc3[nH]2)c2ccccc2c1=O` [Compound 109, 2-[1-[[6-bromo-5-(cyclopropylmethoxy)-1H-benzimidazol-2-yl]methyl]-4-oxo-cinnolin-3-yl]acetic acid], the EC50 turned out to be 0.137 nM in the test on HFL-1 cells [1], 3.84 nM on S1PR2, 2.03 nM in the test with HFL-1 cells [2] and 2.32 nM in test [3].

Turning to `N#Cc1cc2nc(Cc3nn(CC(=O)NC[C@H](O)C(F)(F)F)c(=O)c4ccccc34)[nH]c2cc1OCC(F)F` [Compound 191, 2-[4-[[5-cyano-6-(2,2-difluoroethoxy)-1H-benzimidazol-2-yl]methyl]-1-oxo-phthalazin-2-yl]-N-[(2S)-3,3,3-trifluoro-2-hydroxypropyl]acetamide], the EC50 with HFL-1 cells [1] is 36.6 nM; on S1PR2, 66.4 nM; in the test with HFL-1 cells [2], 99.9 nM; in test [3], 11.8 nM.

Regarding `N#Cc1ccc2c(Cc3nc4cc(Cl)c(OCC(F)F)cc4[nH]3)nn(CC(=O)N3CCOCC3)c(=O)c2c1` [Compound 40, 1-[[5-chloro-6-(2,2-difluoroethoxy)-1H-benzimidazol-2-yl]methyl]-3-(2-morpholino-2-oxo-ethyl)-4-oxo-phthalazine-6-carbonitrile], the EC50 came to 145 nM with HFL-1 cells [1], 261 nM on S1PR2, 292 nM in the test on HFL-1 cells [2] and 86.4 nM in test [3].

Regarding `N#Cc1cc2nc(Cc3nn(CC(=O)NCC4(CO)COC4)c(=O)c4ccccc34)[nH]c2cc1OCC(F)F` [Compound 199, 2-[4-[[5-cyano-6-(2,2-difluoroethoxy)-1H-benzimidazol-2-yl)methyl]-1-oxo-phthalazin-2-yl]-N-[[3-(hydroxymethyl)oxetan-3-yl]methyl]acetamide], the EC50 came to 80.3 nM in the test on HFL-1 cells [1], 173 nM at S1PR2, 276 nM in the test on HFL-1 cells [2] and 54.6 nM in test [3].

Turning to `O=C(Cn1nc(Cn2cc3cc(OCC4CC4)c(Cl)cc3n2)c2ccccc2c1=O)N[C@H]1CCC[C@@H]1O` [Compound 143, 2-[4-[[6-chloro-5-(cyclopropylmethoxy)indazol-2-yl]methyl]-1-oxo-phthalazin-2-yl]-N-[(1S,2S)-2-hydroxycyclopentyl]acetamide], the EC50 in the test on HFL-1 cells [1] turned out to be 21.6 nM; at S1PR2, 15.2 nM; in the test on HFL-1 cells [2] it was 179 nM; in test [3], 13.8 nM.

With `N#Cc1cc2nc(Cc3nn(CC(=O)N(CCO)CC(F)F)c(=O)c4ccccc34)[nH]c2cc1OCC(F)F` [Compound 194, 2-[4-[[5-cyano-6-(2,2-difluoroethoxy)-1H-benzimidazol-2-yl]methyl]-1-oxo-phthalazin-2-yl]-N-(2,2-difluoroethyl)-N-(2-hydroxyethyl)acetamide], the EC50 in the test on HFL-1 cells [1] came out at 186 nM; at S1PR2, 268 nM; in the test with HFL-1 cells [2], 453 nM; in test [3], 41.9 nM.

With `O=C(Cn1nc(Cc2nc3cc(Cl)c(OCC4CC4)cc3[nH]2)c2ccccc2c1=O)N1CCOCC1` [Compound 166, 4-[[5-chloro-6-(cyclopropylmethoxy)-1H-benzimidazol-2-yl]methyl]-2-(2-morpholino-2-oxo-ethyl)phthalazin-1-one], the EC50 in the test on HFL-1 cells [1] is 1.41 nM; at S1PR2 it was 22.4 nM; in the test on HFL-1 cells [2] it was 3.3 nM; in test [3] it was 9.34 nM.

With `CCOc1cc2[nH]c(Cc3nn(CC(=O)O)c(=O)c4c3CCCC4)nc2cc1Cl` [Compound 121, 2-[4-[(5-chloro-6-ethoxy-1H-benzimidazol-2-yl)methyl]-1-oxo-5,6,7,8-tetrahydrophthalazin-2-yl]acetic acid], the EC50 in the test with HFL-1 cells [1] was 6.35 nM; on S1PR2 it was 84.8 nM; in the test with HFL-1 cells [2] it was 50.8 nM; in test [3], 6.23 nM.

Regarding `O=C(O)Cc1nn(Cc2cc3cc(Cl)c(OCC4CC4)cc3[nH]2)c2ccccc2c1=O` [compound 16, 2-[1-[[5-chloro-6-(cyclopropyl-methoxy)-1H-indol-2-yl]-methyl]-4-oxo-cinnolin-3-yl]-acetic acid], the EC50 with HFL-1 cells [1] came to 8.49 nM; at S1PR2, 29.9 nM; in the test with HFL-1 cells [2], 51.4 nM; in test [3] it was 4.58 nM.

Take `N#Cc1cc2[nH]c(Cc3nn(CC(=O)N4CCOCC4)c(=O)c4cccc(C5CC5)c34)nc2cc1OCC(F)F` [Compound 54, 2-[[8-cyclopropyl-3-(2-morpholino-2-oxo-ethyl)-4-oxo-phthalazin-1-yl]methyl]-6-(2,2-difluoroethoxy)-3H-benzimidazole-5-carbonitrile]: the EC50 in the test with HFL-1 cells [1] turned out to be 32.2 nM; on S1PR2, 93.5 nM; in the test with HFL-1 cells [2], 41.1 nM; in test [3] it was 23.8 nM.

The record behind these values is patent US20210315893A1 (Galapagos NV, priority 2017, published 2021).
